Measurements from US12391652B2 (priority 2019, dated 2025).

How the values were obtained:
[1] = test system: soybean rust fungus (Phakopsora pachyrhizi); experiment: Test Example 1: curative foliar spray against soybean rust on potted soybean; type: in vivo; conditions: for Efficacy (%): 2 ppm foliar spray on soybean (cv; Kurosengoku) 4 days after inoculation, lesion area 7 days after spraying vs untreated group
Experimental: Each of 5 parts of the Ra1 type crystal form, or the Ra4 type crystal form as comparison control, 35 parts of a mixture of white carbon and ammonium polyoxyethylene alkyl ether sulfate (weight ratio is 1:1) and 60 parts of water were mixed, and the mixture was then finely-ground by a wet grinding method to obtain a formulation. Water was then added to the formulation so as to be 2 ppm as the concentration of the Ra1 type crystal form or the Ra4 type crystal form to obtain dilutions respectively.
Each of plastic pots was filled with soil and thereto soybean (cv; Kurosengoku) seeds were sown and the soybeans were grown in a greenhouse for 15 days. Thereafter, an aqueous suspension of spores of soybean rust fungus (Phakopsora pachyrhizi) was spraying-inoculated. After the inoculation, the soybeans were placed under a dark and wet condition at 23° C. for 1 night and were further cultivated in a greenhouse for 3 days, and the above-mentioned diluted dilutions were sprayed to foliar parts so as to adhere adequately on the leaves of the above-mentioned soybean. After spraying the dilutions, the plants were air-dried and were placed under a dark and wet condition at only night, and after 7 days of the spraying, the lesion area was observed (lesion area in treated group).
Whereas, in the untreated group, the similar procedures to those of the treated group except that the Ra1 type crystal form or the Ra4 type crystal form were not applied, were carried out and the lesion area of soybean rust disease in the untreated group was observed (lesion area in untreated group).
From each of the lesion area in the treated group or the untreated group respectively, the efficacy in the treated group was calculated by the following “Equation 1”. Efficacy (%)=[1−(lesion area in the treated group/lesion area in the untreated group)]×100 [Equation 1]

[2] = test system: blast fungus (Pyricularia oryzae); type: in vivo; conditions: for Efficacy (%): 50 ppm foliar spray on rice (cv; Hinohikari), 8 days outdoor, then 11 days in contact with infected rice plants, lesion area vs untreated group; for Efficacy compared to the Ra4 type crystal form: rice blast, 50 ppm

| SMILES | Efficacy (%) [1] [%] | Efficacy compared to the Ra4 type crystal form ([1]; soybean rust, 2 ppm) | Efficacy (%) [2] [%] | Efficacy compared to the Ra4 type crystal form [2] |
| --- | --- | --- | --- | --- |
| CC1CC(C)(C)c2cccc(NC(=O)c3cn(C)nc3C(F)F)c21 (racemic) [Ra1 type crystal form, 3-(difluoromethyl)-1-methyl-N-(1,1,3-trimethyl-2,3-dihydro-1H-inden-4-yl)-1H-pyrazole-4-carboxamide] | 72 | higher efficacy compared to the Ra4 type crystal form |  |  |
| CC1CC(C)(C)c2cccc(NC(=O)c3cn(C)nc3C(F)F)c21 (racemic) [Ra4 type crystal form, 3-(difluoromethyl)-1-methyl-N-(1,1,3-trimethyl-2,3-dihydro-1H-inden-4-yl)-1H-pyrazole-4-carboxamide, reference compound] | 54 |  | 50 |  |
| CC1CC(C)(C)c2cccc(NC(=O)c3cn(C)nc3C(F)F)c21 (racemic) [Ra3 type crystal form, 3-(difluoromethyl)-1-methyl-N-(1,1,3-trimethyl-2,3-dihydro-1H-inden-4-yl)-1H-pyrazole-4-carboxamide] |  |  | 75 | higher efficacy compared to the Ra4 type crystal form |
| CC1CC(C)(C)c2cccc(NC(=O)c3cn(C)nc3C(F)F)c21 (racemic) [Ra2 type crystal form, 3-(difluoromethyl)-1-methyl-N-(1,1,3-trimethyl-2,3-dihydro-1H-inden-4-yl)-1H-pyrazole-4-carboxamide] |  |  | 85 | higher efficacy compared to the Ra4 type crystal form |
